Test results reported in patent US20240279302A1, “OLFACTORY RECEPTOR EXPRESSING METHOD AND RESPONSE MEASUREMENT METHOD” (Kao Corporation, priority 2021, published 2024).
Values belong to the molecule of their own block, whether it stands above or below them.

Assays:
OR4E2 = OR4E2 (Homo sapiens, UniProt Q8NGC2); details: in the presence of a metal ion (JP-A-2020-513564); cited from earlier work
consensus OR11H2 = target: T1, consensus OR11H2 (Homo sapiens, UniProt Q8NH07, A157T/A61V/C266F/D203A/E289A/F213L/F41L/F62C/G242R/I210T/I230L/I288V/I49T/K181M/K238L/L128F/L146H/L162I/M76I/N106T/N25R/P269S/Q137R/Q308R/Q30L/R68Q/S246A/S268G/T131A/T283A/T37K/V63A/Y156C); test: Luciferase assay, sulfur compounds; type: cell-based
T1 construct: expressed in transfected cells; host or cells: HEK293
T1 sequence (Q8NH07 12-326 N25R/Q30L/T37K/F41L/I49T/A61V/F62C/V63A/R68Q/M76I/N106T/L128F/T131A/Q137R/L146H/Y156C/A157T/L162I/K181M/D203A/I210T/F213L/I230L/K238L/G242R/S246A/C266F/S268G/P269S/T283A/I288V/E289A/Q308R): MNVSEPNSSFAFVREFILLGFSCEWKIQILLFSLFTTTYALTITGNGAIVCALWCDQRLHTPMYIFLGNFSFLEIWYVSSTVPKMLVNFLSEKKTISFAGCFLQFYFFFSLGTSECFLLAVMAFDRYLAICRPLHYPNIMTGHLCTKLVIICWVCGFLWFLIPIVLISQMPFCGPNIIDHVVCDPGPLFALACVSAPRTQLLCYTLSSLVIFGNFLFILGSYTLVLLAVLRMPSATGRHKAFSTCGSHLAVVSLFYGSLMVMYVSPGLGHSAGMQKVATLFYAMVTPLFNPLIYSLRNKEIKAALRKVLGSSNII
Experimental: (§1) A reaction solution as to each consensus olfactory receptor prepared in Examples described above was prepared according to the composition shown in Table 4, left standing for 20 minutes in a clean bench, and then added to each well of a 96-well plate (Becton, Dickinson and Company). The original olfactory receptor was used as to OR4S2. Composition shown in Table 20 was used as to OR11H2 and OR4E2. Subsequently, 100 μL of HEK293 cells suspended in DMEM (Nacalai Tesque, Inc.) was inoculated at 2×10^5 cells/cm^2 to each well, and cultured for 24 hours in an incubator kept at 37° C. and 5% CO2. Cells expressing no olfactory receptor (Mock) were provided as a control.
(§2) The medium was removed from the cultures prepared in 1), and 75 μL of a test substance solution (methyl mercaptan (MeSH) (CAS: 74-93-1, Tokyo Chemical Industry Co., Ltd.), dimethyl sulfide (DMS) (CAS: 75-18-3, FUJIFILM Wako Pure Chemical Corp.), dimethyl disulfide (DMDS) (CAS: 624-92-0, Tokyo Chemical Industry Co., Ltd.), concentration range: 0 μM, 1 μM, 3 μM, 10 μM, 30 μM, 100 μM, and 300 μM, or dimethyl trisulfide (DMTS) (CAS: 3658-80-8, Tokyo Chemical Industry Co., Ltd.), concentration range: 0 μM, 0.1 μM, 0.3 μM, 1 μM, 3 μM, 10 μM, and 30 μM) prepared with a fresh medium was added thereto. Under a copper ion addition condition, the test substance solution was adjusted to contain 30 μM copper(II) chloride (FUJIFILM Wako Pure Chemical Corp.) in addition to the odorant. The cells were cultured for 4 hours in a CO2 incubator and the luciferase gene was expressed sufficiently in the cells. Luciferase activity was measured using Dual-Glo™ luciferase assay system (Promega Corp.) in accordance with the operation manual of the product. A luminescence value derived from firefly luciferase induced by test substance stimulation in each well of the 96-well plate was divided by a luminescence value derived from Renilla luciferase to calculate a value (fluc/hRluc) as a signal, which was then used in analysis. The signal under each transfection condition was normalized with the signal value (fluc/hRluc) under an odorant stimulation-free condition defined as 0% and the signal value (fluc/hRluc) by stimulation with 10 μM forskolin defined as 100%, and used as a response (%) in analysis.

[1] = target: T2, OR4S2 (original olfactory receptor) (Homo sapiens, UniProt Q8NH73); test: Luciferase assay, sulfur compounds; type: cell-based
T2 construct: expressed in transfected cells; host or cells: HEK293
T2 sequence (Q8NH73 1-311): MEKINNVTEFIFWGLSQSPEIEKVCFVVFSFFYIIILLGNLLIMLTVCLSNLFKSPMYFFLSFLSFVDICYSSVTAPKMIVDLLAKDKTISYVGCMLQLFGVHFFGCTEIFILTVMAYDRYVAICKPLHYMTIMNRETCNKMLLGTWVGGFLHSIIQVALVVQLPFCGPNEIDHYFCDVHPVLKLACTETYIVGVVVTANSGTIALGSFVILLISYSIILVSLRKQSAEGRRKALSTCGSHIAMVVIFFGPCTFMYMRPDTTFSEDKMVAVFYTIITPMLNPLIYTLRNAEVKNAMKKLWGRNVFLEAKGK
Experimental: as §1, §2

consensus OR4E2 = target: T3, consensus OR4E2 (Homo sapiens, UniProt Q8NGC2, A48T/F285L/G158V/H228Q/I116T/I142V/I197M/I47V/L183P/M219T/M25I/M36V/Q234R/R21W/S209T/S40L/S54R/T201S/T49I/T99A/V118M/V214L); test: Luciferase assay, sulfur compounds; type: cell-based
T3 construct: Flag (N); Rho tag (N); expressed in transfected cells; host or cells: HEK293
T3 sequence (Q8NGC2 1-312 R21W/M25I/M36V/S40L/I47V/A48T/T49I/S54R/T99A/I116T/V118M/I142V/G158V/L183P/I197M/T201S/S209T/V214L/M219T/H228Q/Q234R/F285L limits assumed): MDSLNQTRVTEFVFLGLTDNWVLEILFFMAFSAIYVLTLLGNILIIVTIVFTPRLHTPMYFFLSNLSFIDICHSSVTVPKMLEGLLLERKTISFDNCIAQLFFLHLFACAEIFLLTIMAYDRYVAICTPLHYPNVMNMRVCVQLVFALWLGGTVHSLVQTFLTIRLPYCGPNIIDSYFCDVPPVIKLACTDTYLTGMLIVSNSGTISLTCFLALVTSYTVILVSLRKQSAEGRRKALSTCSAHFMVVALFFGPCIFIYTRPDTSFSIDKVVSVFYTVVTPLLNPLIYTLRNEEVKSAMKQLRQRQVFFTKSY
Experimental: as §1, §2

consensus OR4K17 = target: T4, consensus OR4K17 (Homo sapiens, UniProt Q8NGC6, A163V/E24Q/F120Y/F158L/G263S/I192T/I205M/I296T/I46V/K226R/L86V/P230S/S297A/V197I/V23I/V81M/V91T); test: Luciferase assay, sulfur compounds; type: cell-based
T4 construct: expressed in transfected cells; host or cells: HEK293
T4 sequence (Q8NGC6 with tags, fused parts or gaps V23I/E24Q/I46V/V81M/L86V/V91T/F120Y/F158L/A163V/I192T/V197I/I205M/K226R/P230S/G263S/I296T/S297A): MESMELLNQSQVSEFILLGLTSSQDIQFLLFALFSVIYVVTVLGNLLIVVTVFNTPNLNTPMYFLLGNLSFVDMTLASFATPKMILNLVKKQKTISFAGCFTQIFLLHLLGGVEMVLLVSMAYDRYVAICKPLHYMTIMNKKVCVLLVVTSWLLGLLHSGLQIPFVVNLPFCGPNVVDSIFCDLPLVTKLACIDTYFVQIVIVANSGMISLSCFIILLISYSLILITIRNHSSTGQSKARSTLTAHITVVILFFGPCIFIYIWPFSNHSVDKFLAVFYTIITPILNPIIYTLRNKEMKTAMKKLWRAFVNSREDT
Experimental: as §1, §2

consensus OR4C15 = target: T5, consensus OR4C15 (Homo sapiens, UniProt Q8NGM1, A218G/A270V/E23K/G63A/I200A/I247V/I275T/L152F/L222F/L266F/M197L/N174D/N209I/N278T/Q295N/R137W/R299K/T258A/T88R/V55G/V87E/W233R); test: Luciferase assay, sulfur compounds; type: cell-based
T5 construct: Flag (N); Rho tag (N); expressed in transfected cells; host or cells: HEK293
Experimental: as §1, §2

[2] = system: HEK293 cells expressing olfactory receptor; test: Luciferase assay: ligand responsiveness of consensus vs original olfactory receptors; type: cell-based, human; details: consensus design
Experimental: For luciferase assay, a reaction solution was prepared according to composition shown in Table 4, left standing for 20 minutes in a clean bench, and then added to each well of a 96-well plate (Becton, Dickinson and Company). Subsequently, 100 μL of HEK293 cells suspended in DMEM (Nacalai Tesque, Inc.) was inoculated at 2×10^5 cells/cm^2 to each well, and cultured for 24 hours in an incubator kept at 37° C. and 5% CO2. Cells expressing no olfactory receptor (Mock) were provided as a control.
The medium was removed from the cultures prepared in 2), and 75 μL of a test substance solution with a predetermined concentration prepared with a fresh medium was added thereto. The cells were cultured for 4 hours in a CO2 incubator and the luciferase gene was sufficiently expresses in the cells. Luciferase activity was measured using Dual-Glo™ luciferase assay system (Promega Corp.) in accordance with the operation manual of the product. A luminescence value derived from firefly luciferase induced by test substance stimulation in each well of the 96-well plate was divided by a luminescence value derived from Renilla luciferase to calculate a signal, which was then used in analysis. The signal under each transfection condition was normalized with the signal under a stimulation-free condition defined as 0% and the signal by stimulation with 30 μM forskolin defined as 100%, and used as a response (%) in analysis.

[3] = in the presence of a copper ion

T5 sequence (Q8NGM1 1-311 with the stated changes limits assumed): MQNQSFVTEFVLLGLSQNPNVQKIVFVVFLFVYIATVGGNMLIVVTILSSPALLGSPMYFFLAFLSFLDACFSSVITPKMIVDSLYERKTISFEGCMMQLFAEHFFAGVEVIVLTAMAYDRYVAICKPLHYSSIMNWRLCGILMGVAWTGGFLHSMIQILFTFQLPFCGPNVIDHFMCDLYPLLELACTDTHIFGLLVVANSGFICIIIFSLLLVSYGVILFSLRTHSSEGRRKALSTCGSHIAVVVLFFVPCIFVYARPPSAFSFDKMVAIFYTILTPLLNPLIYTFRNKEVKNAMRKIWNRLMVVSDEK
OR4E2, sequence (Q8NGC2 whole entry): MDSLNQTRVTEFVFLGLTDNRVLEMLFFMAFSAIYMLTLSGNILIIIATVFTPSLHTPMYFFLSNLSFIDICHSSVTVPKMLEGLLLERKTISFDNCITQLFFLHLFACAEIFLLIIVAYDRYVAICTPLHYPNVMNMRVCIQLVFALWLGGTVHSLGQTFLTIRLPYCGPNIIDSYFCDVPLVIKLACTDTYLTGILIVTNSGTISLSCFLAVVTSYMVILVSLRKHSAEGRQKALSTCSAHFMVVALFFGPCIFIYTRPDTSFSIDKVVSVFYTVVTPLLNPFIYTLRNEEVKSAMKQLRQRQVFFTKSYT

Molecule: CC(C)(S)CCO [3-mercapto-3-methylbutanol]
response of OR4E2 (OR4E2): responds

Molecule: C=CCSSSCC=C [diallyl trisulfide]
response of OR4E2 (OR4E2): responds

EC50 (consensus OR11H2; consensus OR11H2, 30 μM CuCl2): 22 µM
dose dependence of the response of consensus OR11H2 (consensus OR11H2; [3]): dose-dependent manner
response of consensus OR11H2 (consensus OR11H2; [3]): responded
EC50 ([1]; OR4S2 (original), 30 μM CuCl2, read-out: EC50(μM) with 30 μM CuCl2): 22 µM
dose dependence of the response of OR4S2 [1, 3]: dose-dependent manner
response of OR4S2 [1, 3]: responded
EC50 (consensus OR4E2; consensus OR4E2, 30 μM CuCl2, read-out: EC50(μM) with 30 μM CuCl2): 22 µM
dose dependence of the response of consensus OR4E2 (consensus OR4E2; [3]): dose-dependent manner
response of consensus OR4E2 (consensus OR4E2; [3]): responded
EC50 (consensus OR4K17; consensus OR4K17, 30 μM CuCl2, read-out: EC50(μM) with 30 μM CuCl2): 188 µM
dose dependence of the response of consensus OR4K17 (consensus OR4K17; [3]): dose-dependent manner
response of consensus OR4K17 (consensus OR4K17; [3]): responded
EC50 (consensus OR4C15; consensus OR4C15, 30 μM CuCl2, read-out: EC50(μM) with 30 μM CuCl2): 414 µM
dose dependence of the response of consensus OR4C15 (consensus OR4C15; [3]): dose-dependent manner
response of consensus OR4C15 (consensus OR4C15; [3]): responded
Molecule: CSC [dimethyl sulfide]

B1: consensus OR2A25 (b): consensus olfactory receptor polypeptide (protein)
chain: MGGNQTSITEFLLLGFPVGPRIQMLLFGLFSLFYVFTLLGNGTILGLISLDSRLHTPMYFFLSHLAVVDIAYACNTVPQMLVNLLHPAKPISFAGCMTQTFLFLSFAHTECLLLVVMSYDRYVAICHPLRYSAIMTWRVCITLALTSWTLGVLLALIHLVLLLPLPFCRPQKINHFFCEIMAVLKLACADTHINEVMVLAGAISVLVGPLSSIVVSYMCILCAILKIQSGEGQRKAFSTCSSHLCVVGLFYGTAIIMYVGPQYGNPKEQKKYLLLFHSLFNPMLNPLIYSLRNSEVKNTLKRMLEKERAL
modifications: OR2A25 consensus-b
notes: consensus olfactory receptor polypeptide
ligand responsiveness in comparison with the original human receptor [2]: sufficiently elevated

B2: consensus OR4S2 (b): consensus olfactory receptor polypeptide (protein)
chain: MEKINNVTEFIFWGLSQSPEVQRVCFVVFLFFYIAIVLGNLLIVLTVCLSNSLKSPMYFFLSFLSFVEICYSSVTAPKMIVDLLAKDKTISYVGCMLQLFFVHFFGCTEIFLLTVMAYDRYVAICKPLHYMTIMNRQTCNKLVLGTWVGGFLHSIIQVLLVVQLPFCGPNVIDHYFCDLHPVLKLACTDTFIVGVVVTANSGTIALGSFVILLISYSIILVSLRKQSAEGRRKALSTCGSHITVVILFFGPCIFMYMRPSTTFSEDKMVAVFYTIITPMLNPLIYTLRNAEVKNAMKKLWGRNVFLEAKGK
modifications: OR4S2 consensus-b
notes: as for B1
ligand responsiveness in comparison with the original human receptor [2]: elevates responsiveness

B3: consensus OR7A17 (a): consensus olfactory receptor polypeptide (protein)
chain: MEPENDTGISEFLLLGLSEEPELQPFLFGLFLSMYLVTVLGNLLIILATISDSHLHTPMYFFLSNLSFADICFISTTVPKMLINIQTQSRVITYAGCITQMCFFVLFGGLDSLLLAVMAYDRFVAICHPLHYTVIMNPRLCGLLVLASWMIAALNSLSQSLMVLWLSFCTDLEIPHFFCELNQVIHLACSDTFLNDMGMYFAAGLLAGGPLAGILYSYSKIVSSIRAISSAQGKYKAFSTCASHLSVVSLFCCTGLGVYLTSAATHNSHTSATASVMYTVATPMLNPFIYSLRNKDIKRALKMSFRGKQ
modifications: OR7A17 consensus-a
notes: as for B1
ligand responsiveness in comparison with the original human receptor [2]: elevates responsiveness

B4: consensus OR7D4 (c): consensus olfactory receptor polypeptide (protein)
chain: MEAENHTEVSEFLLLGLSEDPELQPLLFGLFLSMYLVTVLGNLLIILAISSDSHLHTPMYFFLSNLSFVDICFISTTVPKMLVNIQAQSKDISYMGCLTQVYFFMIFAGMDNFLLTVMAYDRFVAICHPLHYTVIMNPRLCGLLVLASWFIIFWVSLVHILLMKRLTFCTGTEIPHFFCELAQVLKVACSDTLINNIVLYVATALLGVFPLTGILFSYSQIVSSLMRMSSTKGKYKAFSTCGSHLSVVSLFYGTGLGVYLSSAVTHSSQSSSIASVMYTVVTPMLNPFIYSLRNKDVKGALGRLLSRAASCP
modifications: OR7D4 consensus-c
notes: as for B1
ligand responsiveness in comparison with the original human receptor [2]: sufficiently elevated
